The supplement of paper PMC10307832

Columns and labels:
Test in all cases: relative viability (nuclei count vs DMSO), 5 days (fraction); higher = more cells survive
[1] = tested on: 201T
Summary of the method: (§1)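 For relative viability, nuclei counts in treated wells were divided by those in vehicle wells. Lung cancer cell lines had been pin-tool dosed in 1536-well plates the day after seeding and cultured for 5 days, then fixed and stained in one step (final 0.05% Triton X-100, 1% formaldehyde, 1 ug/ml Hoechst) and imaged at 4×. Doses were one drug alone or a fixed anchor-drug dose plus five library-drug doses (not always all listed) in √10 steps, and values are duplicate-plate medians.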

[2] = tested on: A-427
Summary of the method: as §1

[3] = tested on: ABC-1
Summary of the method: as §1

[4] = tested on: BEN
Summary of the method: as §1

[5] = tested on: CAL-12T
Summary of the method: as §1

[6] = tested on: H3255
Summary of the method: as §1

[7] = tested on: LC-2-ad
Summary of the method: as §1

[8] = tested on: LCLC-97TM1
Summary of the method: as §1

[9] = tested on: NCI-H1650
Summary of the method: as §1

[10] = tested on: NCI-H1651
Summary of the method: as §1

[11] = tested on: NCI-H1915
Summary of the method: as §1

[12] = tested on: NCI-H1944
Summary of the method: as §1

[13] = tested on: NCI-H2023
Summary of the method: as §1

[14] = tested on: NCI-H2087
Summary of the method: as §1

[15] = tested on: NCI-H441
Summary of the method: as §1

[16] = tested on: NCI-H460
Summary of the method: as §1

[17] = tested on: NCI-H520
Summary of the method: as §1

[18] = tested on: NCI-H596
Summary of the method: as §1

[19] = tested on: NCI-H650
Summary of the method: as §1

[20] = tested on: NCI-H661
Summary of the method: as §1

[21] = tested on: NCI-H727
Summary of the method: as §1

[22] = tested on: PC-3 [JPC-3]
Summary of the method: as §1

Compound `CC1(C)CCC(c2ccc(Cl)cc2)=C(CN2CCN(c3ccc(C(=O)NS(=O)(=O)c4ccc(N[C@H](CCN5CCOCC5)CSc5ccccc5)c(S(=O)(=O)C(F)(F)F)c4)cc3)CC2)C1` [Navitoclax] + O=C(CCCCCCC(=O)Nc1ccccc1)NO [Vorinostat] (partner 1 µM) has a relative viability ([1]; first compound 0.005 µM) of 1.05, a relative viability ([1]; first compound 0.01581 µM) of 1.12 and a relative viability ([1]; first compound 0.05 µM) of 0.89. The relative viability ([1]; first compound 0.1581 µM) was 0.937, the relative viability ([1]; first compound 0.5 µM) was 1.02 and the relative viability ([2]; first compound 0.005 µM) was 0.915. It also gave a relative viability ([2]; first compound 0.01581 µM) of 0.873, a relative viability ([2]; first compound 0.05 µM) of 0.91 and a relative viability ([2]; first compound 0.1581 µM) of 0.892. It also gave a relative viability ([2]; first compound 0.5 µM) of 0.838, a relative viability ([3]; first compound 0.005 µM) of 1.22 and a relative viability ([3]; first compound 0.01581 µM) of 1.34. It also gave a relative viability ([3]; first compound 0.05 µM) of 0.725, a relative viability ([3]; first compound 0.1581 µM) of 1.41 and a relative viability ([3]; first compound 0.5 µM) of 1.04. For the same compound, the relative viability ([4]; first compound 0.005 µM) was 0.617, the relative viability ([4]; first compound 0.01581 µM) was 0.658 and the relative viability ([4]; first compound 0.05 µM) was 0.593. It also gave a relative viability ([4]; first compound 0.1581 µM) of 0.572, a relative viability ([4]; first compound 0.5 µM) of 0.417 and a relative viability ([5]; first compound 0.005 µM) of 0.73. For the same compound, the relative viability ([5]; first compound 0.01581 µM) was 0.825, the relative viability ([5]; first compound 0.05 µM) was 0.901 and the relative viability ([5]; first compound 0.1581 µM) was 0.806. The relative viability ([5]; first compound 0.5 µM) was 0.903, the relative viability ([6]; first compound 0.005 µM) was 0.787 and the relative viability ([6]; first compound 0.01581 µM) was 0.958. It also gave a relative viability ([6]; first compound 0.05 µM) of 0.874, a relative viability ([6]; first compound 0.1581 µM) of 0.794 and a relative viability ([6]; first compound 0.5 µM) of 0.586. The relative viability ([7]; first compound 0.005 µM) was 0.716, the relative viability ([7]; first compound 0.01581 µM) was 0.686 and the relative viability ([7]; first compound 0.05 µM) was 0.665. It also gave a relative viability ([7]; first compound 0.1581 µM) of 0.67, a relative viability ([7]; first compound 0.5 µM) of 0.712 and a relative viability ([8]; first compound 0.005 µM) of 0.857. It also gave a relative viability ([8]; first compound 0.01581 µM) of 0.745, a relative viability ([8]; first compound 0.05 µM) of 0.659 and a relative viability ([8]; first compound 0.1581 µM) of 0.717. The relative viability ([8]; first compound 0.5 µM) was 0.979, the relative viability ([9]; first compound 0.005 µM) was 0.5 and the relative viability ([9]; first compound 0.01581 µM) was 0.66. The relative viability ([9]; first compound 0.05 µM) was 0.671, the relative viability ([9]; first compound 0.1581 µM) was 0.63 and the relative viability ([9]; first compound 0.5 µM) was 0.651. For the same compound, the relative viability ([10]; first compound 0.005 µM) was 0.582, the relative viability ([10]; first compound 0.01581 µM) was 0.575 and the relative viability ([10]; first compound 0.05 µM) was 0.466. For the same compound, the relative viability ([10]; first compound 0.1581 µM) was 0.573, the relative viability ([10]; first compound 0.5 µM) was 0.598 and the relative viability ([11]; first compound 0.005 µM) was 0.497. For the same compound, the relative viability ([11]; first compound 0.01581 µM) was 0.499, the relative viability ([11]; first compound 0.05 µM) was 0.556 and the relative viability ([11]; first compound 0.1581 µM) was 0.481. It also gave a relative viability ([11]; first compound 0.5 µM) of 0.424, a relative viability ([12]; first compound 0.005 µM) of 0.54 and a relative viability ([12]; first compound 0.01581 µM) of 0.603. The relative viability ([12]; first compound 0.1581 µM) was 0.457, the relative viability ([12]; first compound 0.5 µM) was 0.578 and the relative viability ([13]; first compound 0.005 µM) was 0.744. It also gave a relative viability ([13]; first compound 0.01581 µM) of 0.76, a relative viability ([13]; first compound 0.05 µM) of 0.659 and a relative viability ([13]; first compound 0.1581 µM) of 0.557. The relative viability ([13]; first compound 0.5 µM) was 0.473, the relative viability ([14]; first compound 0.005 µM) was 0.675 and the relative viability ([14]; first compound 0.01581 µM) was 0.467. The relative viability ([14]; first compound 0.1581 µM) was 0.853, the relative viability ([14]; first compound 0.5 µM) was 0.848 and the relative viability ([15]; first compound 0.005 µM) was 0.651. It also gave a relative viability ([15]; first compound 0.01581 µM) of 0.961, a relative viability ([15]; first compound 0.05 µM) of 0.982 and a relative viability ([15]; first compound 0.1581 µM) of 0.694. The relative viability ([15]; first compound 0.5 µM) was 0.725, the relative viability ([16]; first compound 0.005 µM) was 0.614 and the relative viability ([16]; first compound 0.01581 µM) was 0.7. For the same compound, the relative viability ([16]; first compound 0.05 µM) was 0.561, the relative viability ([16]; first compound 0.1581 µM) was 0.645 and the relative viability ([16]; first compound 0.5 µM) was 0.737. The relative viability ([17]; first compound 0.005 µM) was 0.743, the relative viability ([17]; first compound 0.01581 µM) was 0.817 and the relative viability ([17]; first compound 0.05 µM) was 0.704. It also gave a relative viability ([17]; first compound 0.1581 µM) of 0.691, a relative viability ([17]; first compound 0.5 µM) of 0.749 and a relative viability ([18]; first compound 0.005 µM) of 0.648. The relative viability ([18]; first compound 0.01581 µM) was 0.739, the relative viability ([18]; first compound 0.05 µM) was 0.299 and the relative viability ([18]; first compound 0.1581 µM) was 0.55. For the same compound, the relative viability ([18]; first compound 0.5 µM) was 0.496, the relative viability ([19]; first compound 0.005 µM) was 0.503 and the relative viability ([19]; first compound 0.01581 µM) was 0.448. The relative viability ([19]; first compound 0.05 µM) was 0.431, the relative viability ([19]; first compound 0.1581 µM) was 0.463 and the relative viability ([19]; first compound 0.5 µM) was 0.453. It also gave a relative viability ([20]; first compound 0.005 µM) of 0.769, a relative viability ([20]; first compound 0.01581 µM) of 0.727 and a relative viability ([20]; first compound 0.05 µM) of 0.809. It also gave a relative viability ([20]; first compound 0.1581 µM) of 0.763, a relative viability ([20]; first compound 0.5 µM) of 0.772 and a relative viability ([21]; first compound 0.005 µM) of 1.28. For the same compound, the relative viability ([21]; first compound 0.01581 µM) was 1.34, the relative viability ([21]; first compound 0.05 µM) was 0.901 and the relative viability ([21]; first compound 0.1581 µM) was 1.12. It also gave a relative viability ([21]; first compound 0.5 µM) of 1.16, a relative viability ([22]; first compound 0.005 µM) of 0.874 and a relative viability ([22]; first compound 0.01581 µM) of 0.868. For the same compound, the relative viability ([22]; first compound 0.05 µM) was 0.877, the relative viability ([22]; first compound 0.1581 µM) was 0.817 and the relative viability ([22]; first compound 0.5 µM) was 0.499.
